Measured values: patent US20150253323A1, “METHODS AND KITS FOR HIGH THROUGHPUT SCREENING FOR COMPOUNDS TARGETING DNA-BINDING AND RNA-BINDING PROTEINS” (The Florida International University Board of Trustees, priority 2014, published 2015)
“Also recorded” adds a separate entry of the source. Structures can show the parent of a compound that is named as a salt. Where two headings read alike, the source gives them in different places.

Tests used:
3T3-L1 cells = assay: Oil Red O staining of differentiated 3T3-L1 cells (adipogenesis); format: cell-based, mouse; details: for IC50: 3T3-L1, Oil Red O absorbance 492 nm, read-out: inhibition IC50 of neutral lipids in the differentiated cells
Description: Mouse pre-adipocytes (3T3-L1 cells) were a gracious gift from Dr Jun Liu at Mayo Clinic. 3T3-L1 cells were maintained in DMEM supplemented with 10% FBS, 100 U/ml penicillin, 100 μg/ml streptomycin and 5 μg/ml plasmocin. The cells were grown under normal culture conditions of 5% CO2 and humidity. Cells were maintained for a minimum of three passages in linear growth prior to differentiation. To differentiate the 3T3-L1 pre-adipocytes into adipocytes, we used the protocol previously described by Zebisch et al. (Zebisch, K., et al. (2012)). Briefly, 3T3-L1 pre-adipocytes were sub-cultured in DMEM supplemented with 5% newborn calf serum, 100 U/ml penicillin, 100 μg/ml streptomycin and 5 μg/ml plasmocin (Basal Media 1—BM1). The cells were then plated at 6×10^5 cells per dish in 35-mm dishes, 3×10^5 cells per well in a 12-well plate, 1.5×10^5 cells in a 24-well plate or 3.0×10^4 cells per well in a 96-well plate. The cells were grown to confluency with BM1 replacement every other day. Following 48 h of confluency, 3T3-L1 cells were treated with Differentiation medium 1 (DM1), which is BM1 supplemented with […] iso-butyl-methylxanthine, 0.25 μM dexamethasone, 1 μg/ml insulin and 2 μg/ml rosiglitazone. After 48 h, the medium was replaced with differentiation medium 2 (DM2); this is BM1 supplemented with 1 μg/ml insulin. On the seventh day, the cells were placed in DMEM with FBS. The cells were cultured to the date indicated in the experiments below with media changes every other day. The presence of adipogenesis was confirmed by microscopic detection of adipose bodies in the cells. For our experiments, only cultures with >80% differentiation were used.
Following differentiation and drug treatment, Oil Red O staining was used to qualitatively and quantitatively assess the level of neutral lipids in the differentiated cells. For qualitative assessment by phase microscopy, cells were washed twice in PBS and then fixed with 10% formalin for 30 min at room temperature. Oil Red O was reconstituted at 300 mg per 100 ml of isopropanol. The Oil Red O solution was prepared for staining by adding 20 ml of deionized water to 30 ml of the Oil Red O stock solution and filtered. The cells were then incubated for 5 min in 60% isopropanol. The Oil Red O working solution was then added to cells for 5 min. The monolyers were then rinsed clean with deionized water. The cells were then visualized using phase microscopy on the EVOS XL Core microscope. For quantitative assessment of adipogenesis in 96-well formats, cells were lysed in dimethylsulfoxide (DMSO) following the water wash of Oil Red O stained cells. The DMSO released the intracellular Oil Red O into the solution. The absorbance (492 nm) was measured using the BioTek Synergy H1 plate reader.

HMGA2-FL814 interaction = assay: PDI-ELISA for HMGA2 binding to DNA oligomer FL814; set-up: species or system mammalian; details: for OD450 of the PDI-ELISA in the presence of the compound: 100 nM compound, 100 nM FL814, 1 μM HMGA2, 2×SSCT, OD450 without drug 1.44; for inhibition of HMGA2-FL814 interactions: compound at 100 nM in 2×SSCT, FIG. 12 / Table 1; for IC50: netropsin titration
FL814 = assay: Competition dialysis assay, free FL814; format: binding
HMGA2-FL814 complex = biological target: T1, HMGA2-FL814 complex (Mus musculus, UniProt P52927); assay: Competition dialysis assay, HMGA2-FL814 complex; details: 3 μM complex dialyzed against 0.73 μM TMPyP4, 72 h, 2×SSCT
T1 sequence (P52927 2-108 limits assumed): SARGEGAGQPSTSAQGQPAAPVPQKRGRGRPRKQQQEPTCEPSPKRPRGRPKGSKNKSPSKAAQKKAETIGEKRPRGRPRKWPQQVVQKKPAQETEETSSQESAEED

HMGA2 = assay: In-cell western analysis of HMGA2 expression in 3T3-L1 cells; format: cell-based, mouse; details: normalized to TO-PRO-3, FIGS. 17F and G
Description: Specific protein levels were analyzed using in-cell western technology (Egorina, E. M., et al (2006)). During differentiation and drug administration, 3T3-L1 cells were fixed in 4% paraformaldehyde in PBS for 25 min at room temperature. Pre-adipocytes were quenched by washing the cells in 100 mM glycine for 5 min at room temperature. The cells were permeabilized by incubating the cells in 0.2% Triton X-100 in PBS for 30 min at room temperature. The cells were then blocked using LICOR Odyssey Blocking Buffer (LI-COR Biosciences, 927-40100) for 1 h at room temperature. Cells were then incubated with a primary antibody for HMGA2 (Cell Signaling Technologies #5269) at a 1:500 dilution in LI-COR Odyssey Blocking Buffer supplemented with 0.1% Tween-20 for 2.5 h at room temperature. The cells were washed in 0.1% Tween in PBS. Secondary antibodies (IRDye 800CW anti-rabbit, LI-COR Biosciences, 926-32211) were incubated at a dilution of 1:1000 in LI-COR Blocking Buffer supplemented with 0.1% Tween-20 for 1 h. Concurrent to the addition of secondary antibody TO-PRO-3 (Invitrogen) was added at a 1:1000 dilution as a normalization control for cell number and incubated for 1 h. The cells were washed again in 0.1% Tween-20 in PBS. Plates were then scanned on the LICOR Biosciences Odyssey CLx Infrared Imaging System and quantified using the LI-COR in-cell western analysis in Image Studio.

[1] = biological target: T2, HMGA2 (high mobility group protein AT-hook 2) (mammalian, UniProt P52926 P52926:2-109); assay: ELONA; duplex without hairpin loop; 100 nM DNA, 1 uM HMGA2; binding enhanced by TMPyP4; details: tags: purified as in Cui et al. 2007
T2 sequence: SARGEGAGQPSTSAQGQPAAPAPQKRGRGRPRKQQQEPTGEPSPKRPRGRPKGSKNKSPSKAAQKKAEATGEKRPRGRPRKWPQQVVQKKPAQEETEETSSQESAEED

## C=C1C(=O)OC(CCCCCCCC)C1C(=O)O (stereo not drawn) [C-75]
3T3-L1 cells
  IC50: 3700 ± 800 nM

## C[n+]1ccc(-c2c3nc(c(-c4cc[n+](C)cc4)c4ccc([nH]4)c(-c4cc[n+](C)cc4)c4nc(c(-c5cc[n+](C)cc5)c5ccc2[nH]5)C=C4)C=C3)cc1 [TMPyP4]
HMGA2-FL814 interaction; 100 nM annealing product of FL842 and FL843, 1 μM HMGA2, FIG. 15B
  enhancement of HMGA2 binding to double stranded oligomer (FL842/FL843) without loop: able to enhance the binding; also recorded: enhancement
HMGA2-FL814 interaction
  OD450 of the PDI-ELISA in the presence of the compound: Very high
HMGA2-FL814 interaction; titration, 100 nM FL814, 1 μM HMGA2, FIG. 14
  enhancement of HMGA2 binding to FL814 (OD450): dramatically enhance; also recorded: significantly enhanced
FL814; 3 μM FL814 dialyzed against 0.73 μM TMPyP4, 72 h, 2×SSCT
  binding to FL814: tightly
FL814; competition dialysis, 0.73 μM TMPyP4
  binding stoichiometry to FL814: two molecules of TMPyP4 bind to one molecule of FL814
HMGA2-FL814 complex
  binding to the FL814-HMGA2 complex: tightly

## Cn1cc(NC(=O)c2cc(NC(=O)CN=C(N)N)cn2C)cc1C(=O)NCCC(=N)N [Netropsin, netropsin dihydrochloride]
HMGA2-FL814 interaction
  OD450 of the PDI-ELISA in the presence of the compound: 0.152
HMGA2-FL814 interaction; 500 nM or 1 μM netropsin, FIG. 10A, dihydrochloride
  inhibition of HMGA2-DNA interactions (OD450 back to background): complete inhibition; also recorded: completely inhibited
HMGA2-FL814 interaction; dihydrochloride
  inhibition of HMGA2-FL814 interactions: completely inhibit
HMGA2-FL814 interaction; listed as netropsin, dihydrochloride
  inhibition of HMGA2-FL814 interactions: potently inhibit
HMGA2-FL814 interaction; FIG. 10B, 0.5 μM HMGA2, read-out: inhibitory IC50 of HMGA2 binding to FL814
  IC50: ~10 nM
HMGA2-FL814 interaction; FIG. 11B, three titration experiments, read-out: apparent inhibitory IC50 of HMGA2 binding to FL814
  IC50: 9.3 ± 0.78 nM
3T3-L1 cells; FIGS. 17A-17G
  inhibition of differentiation of 3T3-L1 cells to adipocytes: strongly inhibited
3T3-L1 cells; Mus musculus, 10 μM, Oil red O staining, differentiated 3T3-L1 cells, read-out: inhibition of neutral lipid production
  inhibition at 10 µM: > 50%
3T3-L1 cells; Mus musculus
  IC50: 7900 ± 1100 nM
HMGA2
  HMGA2 expression in fully differentiated 3T3-L1 cells in the presence of the compound: expressed

B1: FL842/FL843 duplex (dsDNA)
DNA 1: CCCCCCATATTCGCGATTATTGCGC
DNA 2: GCGCAATAATCGCGAATATGGGGGG
[1]
  binding result: binds
